Reference: patent US11440923B2, “Substituted macrocyclic indole derivatives” (Bayer Aktiengesellschaft, priority 2017, dated 2022)
Where a name gives a salt, the structure may show the parent alone. Read-outs that look alike come from different tables or passages of the source. Each block holds one compound with its values, some of them ahead of it.

What was measured:
[1] = target: BCL-2 (Homo sapiens (Human), UniProt P10415); assay: Protein-protein interaction assay BCL-2/Bad BH3 peptide (BCL-2 assay, TR-FRET); assay type: binding; conditions: read-out: BCL-2 Assay IC50 (median)
Description: Assay 3 Protein-Protein Interaction Assay: BCL-2/Bad BH3 Peptide (BCL-2 Assay)
The dose-dependent inhibition by the compounds described in this invention of the interaction between BCL-2 and the BH3 domain of Bad (both human) was determined using a steady state binding competition assay with time-resolved fluorescence energy transfer (TR-FRET) readout. For that purpose BCL-2 (amino acids 1-211, C-terminal fused to a hexahistidine (6×His) tag (SEQ ID 5) and a synthetic Bad BH3-derived peptide of sequence Biotin-PEG2-PEG2-[…]-Nle-[…]-amide (SEQ ID 4) served as protein receptor and tracer ligand respectively. The recombinant BCL-2 protein (expressed in E. coli) was purchased from BPS Bioscience (San Diego, Calif., USA). The Bad BH3-derived peptide can be obtained from e.g. Biosyntan (Berlin, Germany).
In the assay 11 different concentrations of each compound (0.1 nM, 0.33 nM, 1.1 nM, 3.8 nM, 13 nM, 44 nM, 0.15 μM, 0.51 μM, 1.7 μM, 5.9 μM and 20 μM) were typically measured as duplicates in the same microtiter plate. For that, 100-fold concentrated DMSO solutions were prepared by serial dilutions (1:3.4) of a 2 mM stock solution in a clear, 384-well microtiter plate (Greiner Bio-One, Frickenhausen, Germany). From there, 50 nl were transferred in a dark test plate (Greiner Bio-One, Frickenhausen, Germany). The assay was initiated by addition of 2 μL of a 2,5-fold concentrated His-BCL-2 solution (usually for a 1 nM end concentration in 5 μL reaction volume) in aqueous assay buffer [50 mM Tris/HCl pH 7, 100 mM sodium chloride (NaCl), 50 mM potassium fluoride (KF), 0.005% Tween-20, 2 mM DTT, 0.1% bovine gamma globulin (BGG)] to the compounds in the assay plate. This was followed by a 10-minute incubation step at 22° C. for pre-equilibration of the putative complex between His-BCL-2 and the compounds. After that, 3 μL of a 1.67-fold concentrated solution (in assay buffer) consisting of Bad BH3-derived peptide (1 nM end concentration) and TR-FRET detection reagents [1.67 nM anti-His-Eu cryptate and 1.67 nM streptavidin-XL665 (both from Cisbio Bioassays, Codolet, France)], were added.
The mixture was incubated in the dark for one hour at 22° C. and then overnight at 4° C. The formation of BCL-2/Bad complexes was determined by measuring the resonance energy transfer of the anti-His-Eu-cryptate antibody to the streptavidin-XL665 present in the reaction. For that purpose, the fluorescence emission at 620 nm and 665 nm after excitation at 330-350 nm was measured in a TR-FRET measuring instrument, for instance a Rubystar or a Pherastar (both from BMG Lab Technologies, Offenburg, Germany) or a Viewlux (Perkin-Elmer). The ratio of the emission at 665 nm and at 622 nm was used as indicator of the amount of BCL-2/Bad complexes present.
The resulting data (ratio) were normalized, taking 0% inhibition as the mean value of control measurements (usually 32 data points) where all reagents were included. In this case 50 nl DMSO were used instead of compounds. […] IC50 values were determined by regression analysis based on a 4 parameter equation (minimum, maximum, IC50, Hill; Y=Max+(Min−Max)/(1+(X/IC50)^Hill) using the Screener Software (Genedata).

[2] = tested on: AMO-1 cells; assay: Antiproliferation assay AMO-1 (Assay 7); assay type: cell-based
Summary of the method: (§1)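 Cells were plated overnight at 37° C, then compound-treated for 72 h. Viability was measured by CellTiter-Glo luminescence.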

[3] = tested on: HMC-1-8 cells; assay: Antiproliferation assay HMC-1-8 (Assay 7); assay type: cell-based
Summary of the method: as §1

[4] = read-out: Antiproli AMO-1 IC50 median, 72 h, CellTiter-Glo
[5] = 72 h, read-out: Antiproli HMC-1-8 IC50 median, 72 h, CellTiter-Glo
[6] = 72 h, CellTiter-Glo, read-out: Antiproli AMO-1 IC50 median
[7] = 72 h, CellTiter-Glo; read-out: Antiproli HMC-1-8 IC50 median
[8] = Homo sapiens, AMO1, 72 h, 72 h, CellTiter-Glo, read-out: Antiproli AMO-1 IC50 median
[9] = 72 h, CellTiter-Glo, read-out: Antiproli HMC-1-8 IC50 median

BCL-2, sequence (P10415 1-211): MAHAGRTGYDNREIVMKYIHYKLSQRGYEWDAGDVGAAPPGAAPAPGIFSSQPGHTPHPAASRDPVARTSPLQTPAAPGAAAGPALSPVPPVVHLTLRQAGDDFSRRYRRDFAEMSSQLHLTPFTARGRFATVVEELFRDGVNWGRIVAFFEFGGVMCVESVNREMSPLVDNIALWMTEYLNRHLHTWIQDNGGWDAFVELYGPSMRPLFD

IC50 [1]: > 20000 nM
SMILES: Cc1c2c(nn1C)C(C)OCCCCn1c(C(=O)O)c(CCCOc3cccc4ccccc34)c3cccc-2c31 (racemic) [Example 1, (rac)-2,3,15-trimethyl-7-[3-(naphthalen-1-yloxy)propyl]-2,10,11,12,13,15-hexahydropyrazolo[4′,3′:9,10][1,6]oxazacycloundecino[8,7,6-hi]indole-8-carboxylic Acid (Mixture of Stereoisomers)]

SMILES: CCc1c2c(nn1C)C(CCN1CCOCC1)OCCCCn1c(C(=O)O)c(CCCOc3cccc4ccccc34)c3ccc(F)c-2c31 (single isomer, unassigned; enantiomer 1) [Example 11, 3-ethyl-4-fluoro-2-methyl-15-[2-(morpholin-4-yl)ethyl]-7-{3-[(naphthalen-1-yl)oxy]propyl}-2,10,11,12,13,15-hexahydropyrazolo[4′,3′:9,10][1,6]oxazacycloundecino[8,7,6-hi]indole-8-carboxylic Acid—N-ethylethanamine Salt (Enantiomer 1)]
IC50 [2, 4]: 159 nM
IC50 [3, 5]: 1030 nM

IC50 [1]: > 20000 nM
SMILES: Cc1c2c(nn1C)C(CCN1CCOCC1)OCCCCn1c(C(=O)O)c(CCCOc3cccc4ccccc34)c3cccc-2c31 (single isomer, unassigned; stereoisomer 2) [Example 6, 2,3-dimethyl-15-[2-(morpholin-4-yl)ethyl]-7-[3-(naphthalen-1-yloxy)propyl]-2,10,11,12,13,15-hexahydropyrazolo[4′,3′:9,10][1,6]oxazacycloundecino[8,7,6-hi]indole-8-carboxylic Acid (Stereoisomer 2)]

SMILES: CCc1c2c(nn1C)C(CCC(C)(C)O)OCCCCn1c(C(=O)O)c(CCCOc3cccc4cc(F)ccc34)c3ccc(Cl)c-2c31 (single isomer, unassigned; enantiomer 1) [Example 75, (+)-4-chloro-3-ethyl-7-{3-[(6-fluoronaphthalen-1-yl)oxy]propyl}-15-(3-hydroxy-3-methylbutyl)-2-methyl-2,10,11,12,13,15-hexahydropyrazolo[4′,3′:9,10][1,6]oxazacycloundecino[8,7,6-hi]indole-8-carboxylic Acid—N-ethylethanamine Salt (Enantiomer 1)]
IC50 [2, 6]: 13.8 nM
IC50 [3, 7]: 159 nM

SMILES: CCc1c2c(nn1C)C(C(F)(F)F)OCCCCn1c(C(=O)O)c(CCCOc3cccc4ccccc34)c3ccc(Cl)c-2c31 (single isomer, unassigned; enantiomer 1) [Example 33, (+)-4-chloro-3-ethyl-2-methyl-7-{3-[(naphthalen-1-yl)oxy]propyl}-15-(trifluoromethyl)-2,10,11,12,13,15-hexahydropyrazolo[4′,3′:9,10][1,6]oxazacycloundecino[8,7,6-hi]indole-8-carboxylic Acid—N-ethylethanamine Salt (Enantiomer 1)]
IC50 [2, 4]: 6960 nM
IC50 [3, 5]: 15000 nM

SMILES: CCc1c2c(nn1C)C(C1CC1)OCCCCn1c(C(=O)O)c(CCCOc3cccc4cc(F)ccc34)c3ccc(Cl)c-2c31 (single isomer, unassigned; enantiomer 1) [Example 39, (+)-4-chloro-15-cyclopropyl-3-ethyl-7-{3-[(6-fluoronaphthalen-1-yl)oxy]propyl}-2-methyl-2,10,11,12,13,15-hexahydropyrazolo[4′,3′:9,10][1,6]oxazacycloundecino[8,7,6-hi]indole-8-carboxylic Acid—N-ethylethanamine Salt (Enantiomer 1)]
IC50 ([2]; Homo sapiens, AMO1, 72 h, read-out: Antiproli AMO-1 IC50 median, 72 h, CellTiter-Glo): 4940 nM
IC50 [3, 5]: 12300 nM

SMILES: CCc1c2c(nn1C)C(CCC1CCOCC1)OCCCCn1c(C(=O)O)c(CCCOc3cccc4cc(F)ccc34)c3ccc(Cl)c-2c31 (single isomer, unassigned; enantiomer 1) [Example 63, (+)-4-chloro-3-ethyl-7-{3-[(6-fluoronaphthalen-1-yl)oxy]propyl}-2-methyl-15-[2-(oxan-4-yl)ethyl]-2,10,11,12,13,15-hexahydropyrazolo[4′,3′:9,10][1,6]oxazacycloundecino[8,7,6-hi]indole-8-carboxylic Acid—N-ethylethanamine Salt (Enantiomer 1)]
IC50 [2, 4]: 20 nM
IC50 ([3]; read-out: Antiproli HMC-1-8 IC50 median; 72 h, CellTiter-Glo): 351 nM

SMILES: CCc1c2c(nn1C)C(CCC1CCOCC1)OCCCCn1c(C(=O)O)c(CCCOc3cccc4cc(F)ccc34)c3ccc(Cl)c-2c31 (single isomer, unassigned; enantiomer 1) [Example 61, 4-chloro-3-ethyl-7-{3-[(6-fluoronaphthalen-1-yl)oxy]propyl}-2-methyl-15-[2-(oxan-4-yl)ethyl]-2,10,11,12,13,15-hexahydropyrazolo[4′,3′:9,10][1,6]oxazacycloundecino[8,7,6-hi]indole-8-carboxylic Acid (Enantiomer 1)]
IC50 [2, 6]: 22.5 nM
IC50 [3, 7]: 186 nM

SMILES: CCc1c2c(nn1C)C1CCCCN1CCCCn1c(C(=O)O)c(CCCOc3cccc4ccccc34)c3ccc(Cl)c-2c31 (racemic) [Example 102, (rac)-18-chloro-1-ethyl-2-methyl-15-[3-(1-naphthyloxy)propyl]-2,3b,4,5,6,7,9,10,11,12-decahydropyrazolo[3′,4′:8,9]pyrido[1′,2′:6,7][1,6]diazacycloundecino[10,11,1-hi]indole-14-carboxylic Acid]
IC50 [2, 8]: 522 nM
IC50 [3, 9]: 7470 nM

SMILES: CCc1c2c(nn1C)C1CCCN1CCCCn1c(C(=O)O)c(CCCOc3cccc4cc(F)ccc34)c3ccc(Cl)c-2c31 (single isomer, unassigned; (+)) [Example 105, (+)-17-chloro-1-ethyl-14-{3-[(6-fluoronaphthalen-1-yl)oxy]propyl}-2-methyl-3b,4,5,6,8,9,10,11-octahydro-2H-pyrazolo[3′,4′:8,9]pyrrolo[1′,2′:6,7][1,6]diazacycloundecino[10,11,1-hi]indole-13-carboxylic Acid]
IC50 [2, 6]: 203 nM
IC50 [3, 7]: 2660 nM

SMILES: CCc1c2c(nn1C)C(C(F)(F)F)OCCCCn1c(C(=O)O)c(CCCOc3cccc4ccccc34)c3ccc(Cl)c-2c31 (racemic) [Example 27, (rac)-4-Chloro-3-ethyl-2-methyl-7-{3-[(naphthalen-1-yl)oxy]propyl}-15-(trifluoromethyl)-2,10,11,12,13,15-hexahydropyrazolo[4′,3′:9,10][1,6]oxazacycloundecino[8,7,6-hi]indole-8-carboxylic Acid]
IC50 [2, 8]: 12100 nM
IC50 [3, 9]: 20700 nM

SMILES: CCc1c2c(nn1C)C(CCN1CC(F)(F)C1)OCCCCn1c(C(=O)O)c(CCCOc3cccc4cc(F)ccc34)c3ccc(Cl)c-2c31 (single isomer, unassigned; (+)) [Example 78, (+)-4-chloro-15-[2-(3,3-difluoroazetidin-1-yl)ethyl]-3-ethyl-7-{3-[(6-fluoronaphthalen-1-yl)oxy]propyl}-2-methyl-2,10,11,12,13,15-hexahydropyrazolo[4′,3′:9,10][1,6]oxazacycloundecino[8,7,6-hi]indole-8-carboxylic Acid—N-ethylethanamine Salt]
IC50 [2, 6]: 11.2 nM
IC50 [3, 7]: 563 nM

SMILES: CCc1c2c(nn1C)C(C1CC1)OCCCCn1c(C(=O)O)c(CCCOc3cccc4cc(F)ccc34)c3ccc(Cl)c-2c31 (racemic) [Example 38, (rac)-4-chloro-(15-rac)-cyclopropyl-3-ethyl-7-{3-[(6-fluoronaphthalen-1-yl)oxy]propyl}-2-methyl-2,10,11,12,13,15-hexahydropyrazolo[4′,3′:9,10][1,6]oxazacycloundecino[8,7,6-hi]indole-8-carboxylic Acid]
IC50 [2, 8]: 5010 nM
IC50 [3, 9]: 20300 nM
